{"source": "paper PMC9086285", "about": "“Catalytic Features and Thermal Adaptation Mechanisms of a Deep Sea Bacterial Cutinase-Type Poly(Ethylene Terephthalate) Hydrolase” (Frontiers in Bioengineering and Biotechnology, 2022)", "key": {"[1]": {"target": "T1, IsPETase (Pseudideonella sakaiensis, UniProt A0A0K8P6T7)", "T1 construct": "gene ISF6_4831; purified enzyme; expression construct not described", "T1 sequence (A0A0K8P6T7 28-290)": "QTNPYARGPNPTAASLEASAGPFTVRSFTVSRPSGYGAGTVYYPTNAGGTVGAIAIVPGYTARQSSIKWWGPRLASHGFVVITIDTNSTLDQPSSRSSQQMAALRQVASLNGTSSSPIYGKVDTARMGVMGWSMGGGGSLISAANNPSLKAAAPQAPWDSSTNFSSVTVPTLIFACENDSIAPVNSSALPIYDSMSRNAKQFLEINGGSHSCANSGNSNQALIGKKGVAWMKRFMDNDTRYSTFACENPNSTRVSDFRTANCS", "experiment": "inhibition of mp-PET hydrolysis, HPLC of products", "format": "biochemical", "details": "1 mM MHET, mp-PET substrate, 40°C, pH 8.5, 10 mM CaCl2, 72 h; product inhibition"}, "[2]": {"target": "T2, ICCG (unidentified prokaryotic organism, UniProt G9BY57, Y127G/D238C/F243I/S283C)", "T2 construct": "quadruple variant of LCC; only D238C/S283C given, the other two changes (F243I, Y127G) known from Tournier et al. 2020; expression construct not described; PDB 6THT given as the ICCG structure used for modelling", "T2 sequence (G9BY57 36-293 Y127G/D238C/F243I/S283C)": "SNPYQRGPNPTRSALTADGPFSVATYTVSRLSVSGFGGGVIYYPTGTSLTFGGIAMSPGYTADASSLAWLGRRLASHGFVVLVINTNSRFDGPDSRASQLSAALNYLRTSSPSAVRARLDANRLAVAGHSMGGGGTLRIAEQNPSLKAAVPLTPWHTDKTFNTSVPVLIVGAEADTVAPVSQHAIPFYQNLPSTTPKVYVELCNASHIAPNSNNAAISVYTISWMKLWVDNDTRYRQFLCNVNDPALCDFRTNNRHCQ", "experiment": "inhibition of mp-PET hydrolysis, HPLC of products", "format": "biochemical", "details": "1 mM MHET, mp-PET substrate, 40°C, pH 8.5, 10 mM CaCl2, 72 h; product inhibition"}}}
{"smiles": "O=C(O)c1ccc(C(=O)OCCO)cc1", "note": "[MHET]", "values": [{"measurement": "inhibition at 1 mM", "setting": "[1]", "value": "in the presence of MHET, significant inhibitory effects were detected toward IsPETase and ICCG"}, {"measurement": "inhibition at 1 mM", "setting": "[2]", "value": "in the presence of MHET, significant inhibitory effects were detected toward IsPETase and ICCG"}]}
